According to patent US12295936B2, “Immunomodulating urea azalides” (Zoetis Services LLC, priority 2020, dated 2025):
Where two headings read alike, the source gives them in different places.

Columns and labels:
TNF-α = test: LPS-stimulated whole bovine blood assay, MSD cytokine detection; assay type: cell-based; details: Bos taurus, read-out: TNF-α (IC50 μM)
Experimental: (§1) Therefore, a fresh whole bovine blood assay was developed with LPS as a stimulant (TLR-4 agonist) and with IL-1β and TNF-α as the read-out. Compounds of the invention were evaluated against a positive control for their ability to inhibit LPS-induced IL-1β and TNF-α as an overall evaluation of relative potency and modulation of target pathways (Table 6).
In the bovine whole blood in vitro screening assay the inhibition of TNFα as induced by stimulation by lipopolysaccharide (LPS) and as measured by half the maximal inhibitory concentration (IC50) is recognized as the primary biomarker of immunomodulation potency upon pretreatment with the compounds of the invention. IL-1β is a mediator of the inflammation response and is involved in a number of cellular activities including proliferation, differentiation and apoptosis. IL-1β is also released upon cellular stress or cytotoxicity or upon TLR stimulation. In the bovine whole blood assay the stimulation of IL-1β release upon increasing concentration of test compound is seen as a potential cellular toxicity signal as induced by the test compound. In order to estimate a therapeutic index from the in vitro assay a differential between the TNFα IC50 (immunomodulation potency) versus the perceived cellular toxicity concentration (IL-1β release or overstimulation) was utilized.

IL-1β = test: as above; assay type: cell-based; details: overstimulation of IL-1β, LPS-stimulated bovine whole blood
Experimental: as §1, with “The effect of multiple cytokines was not easily quantified using single cell types. Therefore,” for “Therefore,”
(§2) In order to correlate RNA sequencing data to cytokine changes the whole blood assay was utilized. […] The enhancement result represents an overall stimulation of cytokine levels due to cellular stress or potential toxicity with increasing concentrations of the compound, representing a typical bell shape response curve for immunomodulatory activity.
In the bovine whole blood in vitro screening assay the inhibition of TNFα as induced by stimulation by lipopolysaccharide (LPS) and as measured by half the maximal inhibitory concentration (IC50) is recognized as the primary biomarker of immunomodulation potency upon pretreatment with the compounds of the invention.

IL-6 = test: as above; assay type: cell-based; details: Bos taurus, read-out: IL-6 (IC50 μM)
From the text: as §2

[1] = tested on: BRD pathogens, M. haemolytica and P. multocida; test: MIC screening panel of BRD pathogens (antibacterial / non-antibacterial); details: read-out: antibacterial / non-antibacterial (MIC for the BRD pathogens)
[2] = LPS-stimulated bovine whole blood

SMILES	IC50 (TNF-α; [2])	IL-1β OS of LPS (IL-1β)	IC50 (IL-6; [2])	MIC [1]	IC50 (TNF-α)	IC50 (IL-6)
CC[C@H]1OC(=O)[C@H](C)[C@@H](O[C@H]2C[C@@](C)(OC)[C@](O)(CN3CCN(C)CC3)[C@H](C)O2)[C@H](C)[C@@H](O[C@@H]2O[C@H](C)C[C@H](N(C)C(=O)Nc3ccc(N(C)C)cc3)[C@H]2O)[C@](C)(O)C[C@@H](C)CN[C@H](C)[C@@H](O)[C@]1(C)O [Example J-6, 3-(4-(dimethylamino)phenyl)-1-((2S,3R,4S,6R)-2-(((2R,3S,4R,5R,8R,10R,11R,12S,13S,14R)-2-ethyl-3,4,10-trihydroxy-13-(((2R,4R,5S,6S)-5-hydroxy-4-methoxy-4,6-dimethyl-5-((4-methylpiperazin-1-yl)methyl)tetrahydro-2H-pyran-2-yl)oxy)-3,5,8,10,12,14-hexamethyl-15-oxo-1-oxa-6-azacyclopentadecan-11-yl)oxy)-3-hydroxy-6-methyltetrahydro-2H-pyran-4-yl)-1-methylurea]	225 µM	>500 µM	> 500 µM			
CC[C@H]1OC(=O)[C@H](C)[C@@H](O[C@H]2C[C@@](C)(OC)[C@](O)(CNCCCN3CCCCC3)[C@H](C)O2)[C@H](C)[C@@H](O[C@@H]2O[C@H](C)C[C@H](N(C)C(=O)N(C)c3ccccc3)[C@H]2O)[C@](C)(O)C[C@@H](C)CN[C@H](C)[C@@H](O)[C@]1(C)O [Example H-38, 1-((2S,3R,4S,6R)-2-(((2R,3S,4R,5R,8R,10R,11R,12S,13S,14R)-2-ethyl-3,4,10-trihydroxy-13-(((2R,4R,5S,6S)-5-hydroxy-4-methoxy-4,6-dimethyl-5-(((3-(piperidin-1-yl)propyl)amino)methyl)tetrahydro-2H-pyran-2-yl)oxy)-3,5,8,10,12,14-hexamethyl-15-oxo-1-oxa-6-azacyclopentadecan-11-yl)oxy)-3-hydroxy-6-methyltetrahydro-2H-pyran-4-yl)-1,3-dimethyl-3-phenylurea]	49 µM	>250 µM	36 µM			
CC[C@H]1OC(=O)[C@H](C)[C@@H](O[C@H]2C[C@@](C)(OC)[C@](O)(CNCCN3CCOCC3)[C@H](C)O2)[C@H](C)[C@@H](O[C@@H]2O[C@H](C)C[C@H](N(C)C(=O)N(C)c3ccccc3)[C@H]2O)[C@](C)(O)C[C@@H](C)CN[C@H](C)[C@@H](O)[C@]1(C)O [Example H-42, 1-((2S,3R,4S,6R)-2-(((2R,3S,4R,5R,8R,10R,11R,12S,13S,14R)-2-ethyl-3,4,10-trihydroxy-13-(((2R,4R,5S,6S)-5-hydroxy-4-methoxy-4,6-dimethyl-5-(((2-morpholinoethyl)amino)methyl)tetrahydro-2H-pyran-2-yl)oxy)-3,5,8,10,12,14-hexamethyl-15-oxo-1-oxa-6-azacyclopentadecan-11-yl)oxy)-3-hydroxy-6-methyltetrahydro-2H-pyran-4-yl)-1,3-dimethyl-3-phenylurea]		100 µM	177 µM	> 64 µg/mL		
CC[C@H]1OC(=O)[C@H](C)[C@@H](O[C@H]2C[C@@](C)(OC)[C@](O)(Cn3cncn3)[C@H](C)O2)[C@H](C)[C@@H](O[C@@H]2O[C@H](C)C[C@H](N(C)C(=O)N(C)c3ccccc3)[C@H]2O)[C@](C)(O)C[C@@H](C)CN[C@H](C)[C@@H](O)[C@]1(C)O [Example J-27, 1-((2S,3R,4S,6R)-2-(((2R,3S,4R,5R,8R,10R,11R,12S,13S,14R)-13-(((2R,4R,5S,6S)-5-((1H-1,2,4-triazol-1-yl)methyl)-5-hydroxy-4-methoxy-4,6-dimethyltetrahydro-2H-pyran-2-yl)oxy)-2-ethyl-3,4,10-trihydroxy-3,5,8,10,12,14-hexamethyl-15-oxo-1-oxa-6-azacyclopentadecan-11-yl)oxy)-3-hydroxy-6-methyltetrahydro-2H-pyran-4-yl)-1,3-dimethyl-3-phenylurea]	48 µM	250 µM	124 µM			
CC[C@H]1OC(=O)[C@H](C)[C@@H](O[C@H]2C[C@@](C)(OC)[C@](O)(Cn3ncnn3)[C@H](C)O2)[C@H](C)[C@@H](O[C@@H]2O[C@H](C)C[C@H](N(C)C(=O)N(C)c3ccccc3)[C@H]2O)[C@](C)(O)C[C@@H](C)CN[C@H](C)[C@@H](O)[C@]1(C)O [Example J-30, 1-((2S,3R,4S,6R)-2-(((2R,3S,4R,5R,8R,10R,11R,12S,13S,14R)-13-(((2R,4R,5S,6S)-5-((2H-tetrazol-2-yl)methyl)-5-hydroxy-4-methoxy-4,6-dimethyltetrahydro-2H-pyran-2-yl)oxy)-2-ethyl-3,4,10-trihydroxy-3,5,8,10,12,14-hexamethyl-15-oxo-1-oxa-6-azacyclopentadecan-11-yl)oxy)-3-hydroxy-6-methyltetrahydro-2H-pyran-4-yl)-1,3-dimethyl-3-phenylurea]		40 µM			16 µM	111 µM
CCCNC[C@]1(O)[C@H](C)O[C@@H](O[C@H]2[C@H](C)[C@@H](O[C@@H]3O[C@H](C)C[C@H](N(C)C(=O)Nc4ccccc4C)[C@H]3O)[C@](C)(O)C[C@@H](C)CN[C@H](C)[C@@H](O)[C@](C)(O)[C@@H](CC)OC(=O)[C@@H]2C)C[C@@]1(C)OC [Example H-81, 1-((2S,3R,4S,6R)-2-(((2R,3S,4R,5R,8R,10R,11R,12S,13S,14R)-2-ethyl-3,4,10-trihydroxy-13-(((2R,4R,5S,6S)-5-hydroxy-4-methoxy-4,6-dimethyl-5-((propylamino)methyl)tetrahydro-2H-pyran-2-yl)oxy)-3,5,8,10,12,14-hexamethyl-15-oxo-1-oxa-6-azacyclopentadecan-11-yl)oxy)-3-hydroxy-6-methyltetrahydro-2H-pyran-4-yl)-1-methyl-3-(o-tolyl)urea]	> 250 µM	39 µM	47 µM			
CC[C@H]1OC(=O)[C@H](C)[C@@H](O)[C@H](C)[C@@H](O[C@@H]2O[C@H](C)C[C@H](N(C)C(=O)Nc3ccncc3)[C@H]2O)[C@](C)(O)C[C@@H](C)CN[C@H](C)[C@@H](O)[C@]1(C)O [Example A-5, 1-((2S,3R,4S,6R)-2-(((2R,3S,4R,5R,8R,10R,11R,12S,13S,14R)-2-ethyl-3,4,10,13-tetrahydroxy-3,5,8,10,12,14-hexamethyl-15-oxo-1-oxa-6-azacyclopentadecan-11-yl)oxy)-3-hydroxy-6-methyltetrahydro-2H-pyran-4-yl)-1-methyl-3-(pyridin-4-yl)urea]	> 250 µM	24 µM	> 250 µM			
CCCNC[C@]1(O)[C@H](C)O[C@@H](O[C@H]2[C@H](C)[C@@H](O[C@@H]3O[C@H](C)C[C@H](N(C)C(=O)Nc4ccc(C#N)cc4)[C@H]3O)[C@](C)(O)C[C@@H](C)CN[C@H](C)[C@@H](O)[C@](C)(O)[C@@H](CC)OC(=O)[C@@H]2C)C[C@@]1(C)OC [Example H-77, 3-(4-cyanophenyl)-1-((2S,3R,4S,6R)-2-(((2R,3S,4R,5R,8R,10R,11R,12S,13S,14R)-2-ethyl-3,4,10-trihydroxy-13-(((2R,4R,5S,6S)-5-hydroxy-4-methoxy-4,6-dimethyl-5-((propylamino)methyl)tetrahydro-2H-pyran-2-yl)oxy)-3,5,8,10,12,14-hexamethyl-15-oxo-1-oxa-6-azacyclopentadecan-11-yl)oxy)-3-hydroxy-6-methyltetrahydro-2H-pyran-4-yl)-1-methylurea]	30 µM	200 µM		> 64 µg/mL		
CCNC[C@]1(O)[C@H](C)O[C@@H](O[C@H]2[C@H](C)[C@@H](O[C@@H]3O[C@H](C)C[C@H](N(C)C(=O)N(C)c4ccccc4)[C@H]3O)[C@](C)(O)C[C@@H](C)CN[C@H](C)[C@@H](O)[C@](C)(O)[C@@H](CC)OC(=O)[C@@H]2C)C[C@@]1(C)OC [Example H-23, 1-((2S,3R,4S,6R)-2-(((2R,3S,4R,5R,8R,10R,11R,12S,13S,14R)-2-ethyl-13-(((2R,4R,5S,6S)-5-((ethylamino)methyl)-5-hydroxy-4-methoxy-4,6-dimethyltetrahydro-2H-pyran-2-yl)oxy)-3,4,10-trihydroxy-3,5,8,10,12,14-hexamethyl-15-oxo-1-oxa-6-azacyclopentadecan-11-yl)oxy)-3-hydroxy-6-methyltetrahydro-2H-pyran-4-yl)-1,3-dimethyl-3-phenylurea]		100 µM	193 µM			
